What was measured:
[1] = molecular target: T1, 5-hydroxytryptamine receptor 1A (Homo sapiens, UniProt P08908)
T1 sequence (P08908 whole entry): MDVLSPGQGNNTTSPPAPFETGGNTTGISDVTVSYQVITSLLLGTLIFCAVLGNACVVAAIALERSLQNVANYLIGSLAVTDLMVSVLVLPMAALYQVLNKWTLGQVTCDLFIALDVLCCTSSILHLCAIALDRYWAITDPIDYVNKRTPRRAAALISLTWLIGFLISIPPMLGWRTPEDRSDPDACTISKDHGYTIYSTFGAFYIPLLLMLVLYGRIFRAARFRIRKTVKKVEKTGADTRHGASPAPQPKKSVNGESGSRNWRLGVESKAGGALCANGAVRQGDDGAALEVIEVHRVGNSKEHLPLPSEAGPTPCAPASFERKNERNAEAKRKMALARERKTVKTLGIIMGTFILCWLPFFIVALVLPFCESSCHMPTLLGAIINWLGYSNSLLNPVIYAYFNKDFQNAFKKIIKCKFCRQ

Adenosine receptor A3 = molecular target: T2, Adenosine receptor A3 (Homo sapiens, UniProt P0DMS8)
T2 sequence (P0DMS8 whole entry): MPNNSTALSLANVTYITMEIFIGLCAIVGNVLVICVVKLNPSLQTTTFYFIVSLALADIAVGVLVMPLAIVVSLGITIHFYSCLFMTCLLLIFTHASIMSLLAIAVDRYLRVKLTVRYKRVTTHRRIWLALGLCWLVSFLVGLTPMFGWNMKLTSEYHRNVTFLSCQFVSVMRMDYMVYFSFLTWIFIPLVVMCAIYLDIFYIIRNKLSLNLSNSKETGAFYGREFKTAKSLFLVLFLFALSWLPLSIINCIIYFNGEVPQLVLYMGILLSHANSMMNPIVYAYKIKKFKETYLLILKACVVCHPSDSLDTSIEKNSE

[2] = molecular target: T3, Alpha-2A adrenergic receptor (Homo sapiens, UniProt P08913)
T3 sequence (P08913 whole entry): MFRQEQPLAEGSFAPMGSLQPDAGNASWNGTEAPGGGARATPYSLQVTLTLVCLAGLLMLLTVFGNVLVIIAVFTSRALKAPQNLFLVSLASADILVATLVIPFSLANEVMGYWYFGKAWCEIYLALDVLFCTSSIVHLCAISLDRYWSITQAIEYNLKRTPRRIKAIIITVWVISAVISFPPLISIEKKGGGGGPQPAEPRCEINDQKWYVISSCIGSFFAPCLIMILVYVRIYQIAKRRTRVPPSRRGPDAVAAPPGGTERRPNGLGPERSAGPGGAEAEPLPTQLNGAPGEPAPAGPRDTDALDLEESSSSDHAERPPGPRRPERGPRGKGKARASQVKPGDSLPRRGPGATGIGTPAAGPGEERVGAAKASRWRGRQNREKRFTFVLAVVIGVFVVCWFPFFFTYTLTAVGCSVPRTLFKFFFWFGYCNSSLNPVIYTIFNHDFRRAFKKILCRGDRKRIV

[3] = molecular target: T4, Muscarinic acetylcholine receptor M2 (Homo sapiens, UniProt P08172)
T4 sequence (P08172 whole entry): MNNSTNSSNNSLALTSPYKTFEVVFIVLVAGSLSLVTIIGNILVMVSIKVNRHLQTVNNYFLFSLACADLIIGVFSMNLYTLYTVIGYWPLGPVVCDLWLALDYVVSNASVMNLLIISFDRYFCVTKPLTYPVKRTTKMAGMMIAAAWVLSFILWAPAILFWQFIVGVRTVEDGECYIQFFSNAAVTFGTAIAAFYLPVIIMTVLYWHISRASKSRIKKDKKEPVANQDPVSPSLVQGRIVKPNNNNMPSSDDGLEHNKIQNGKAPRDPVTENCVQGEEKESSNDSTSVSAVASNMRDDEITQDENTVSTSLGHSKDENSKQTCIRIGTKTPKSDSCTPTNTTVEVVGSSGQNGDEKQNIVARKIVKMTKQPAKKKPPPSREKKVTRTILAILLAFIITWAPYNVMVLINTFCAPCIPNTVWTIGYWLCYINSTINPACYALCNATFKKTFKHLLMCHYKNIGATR

[4] = molecular target: 3',5'-cyclic-AMP phosphodiesterase 4A (Homo sapiens, UniProt P27815); type: functional
[5] = molecular target: 5-hydroxytryptamine receptor 2B (Homo sapiens, UniProt P41595); type: functional, cell-based
[6] = molecular target: Prostaglandin G/H synthase 1 (Homo sapiens, UniProt P23219); type: functional
Histamine H3 receptor = Histamine H3 receptor (Homo sapiens, UniProt Q9Y5N1)
Prothrombin = Prothrombin (Homo sapiens, UniProt P00734); type: functional
Progesterone receptor = molecular target: T5, Progesterone receptor (Homo sapiens, UniProt P06401)
T5 sequence (P06401 whole entry): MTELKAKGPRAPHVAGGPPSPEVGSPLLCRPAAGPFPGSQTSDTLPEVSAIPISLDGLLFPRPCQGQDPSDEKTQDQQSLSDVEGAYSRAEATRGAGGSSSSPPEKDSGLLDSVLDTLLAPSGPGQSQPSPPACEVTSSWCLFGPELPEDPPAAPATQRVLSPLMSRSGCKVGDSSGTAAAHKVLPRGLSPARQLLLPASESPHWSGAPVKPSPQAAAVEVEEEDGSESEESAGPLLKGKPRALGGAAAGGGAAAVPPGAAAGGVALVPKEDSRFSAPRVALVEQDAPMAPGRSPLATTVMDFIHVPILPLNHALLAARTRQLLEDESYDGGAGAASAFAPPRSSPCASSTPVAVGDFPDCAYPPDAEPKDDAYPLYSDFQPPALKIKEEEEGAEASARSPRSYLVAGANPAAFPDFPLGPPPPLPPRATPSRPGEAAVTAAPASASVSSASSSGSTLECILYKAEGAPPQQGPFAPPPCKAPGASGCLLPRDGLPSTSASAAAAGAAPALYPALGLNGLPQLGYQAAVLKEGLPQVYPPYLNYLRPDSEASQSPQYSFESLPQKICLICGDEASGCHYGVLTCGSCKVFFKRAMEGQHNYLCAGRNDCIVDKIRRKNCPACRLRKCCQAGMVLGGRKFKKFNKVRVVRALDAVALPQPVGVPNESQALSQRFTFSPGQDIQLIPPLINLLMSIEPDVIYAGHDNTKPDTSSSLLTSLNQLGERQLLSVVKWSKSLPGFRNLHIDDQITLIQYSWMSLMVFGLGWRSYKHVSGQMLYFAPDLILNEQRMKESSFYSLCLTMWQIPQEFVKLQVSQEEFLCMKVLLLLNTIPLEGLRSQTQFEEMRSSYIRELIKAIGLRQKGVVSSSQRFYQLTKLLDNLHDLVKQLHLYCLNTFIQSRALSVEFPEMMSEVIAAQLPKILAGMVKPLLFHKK

[7] = molecular target: cGMP-inhibited 3',5'-cyclic phosphodiesterase 3A (Homo sapiens, UniProt Q14432); type: functional
Further: assay procedure not described here.

Chain of 3',5'-cyclic-AMP phosphodiesterase 4A (P27815 whole entry): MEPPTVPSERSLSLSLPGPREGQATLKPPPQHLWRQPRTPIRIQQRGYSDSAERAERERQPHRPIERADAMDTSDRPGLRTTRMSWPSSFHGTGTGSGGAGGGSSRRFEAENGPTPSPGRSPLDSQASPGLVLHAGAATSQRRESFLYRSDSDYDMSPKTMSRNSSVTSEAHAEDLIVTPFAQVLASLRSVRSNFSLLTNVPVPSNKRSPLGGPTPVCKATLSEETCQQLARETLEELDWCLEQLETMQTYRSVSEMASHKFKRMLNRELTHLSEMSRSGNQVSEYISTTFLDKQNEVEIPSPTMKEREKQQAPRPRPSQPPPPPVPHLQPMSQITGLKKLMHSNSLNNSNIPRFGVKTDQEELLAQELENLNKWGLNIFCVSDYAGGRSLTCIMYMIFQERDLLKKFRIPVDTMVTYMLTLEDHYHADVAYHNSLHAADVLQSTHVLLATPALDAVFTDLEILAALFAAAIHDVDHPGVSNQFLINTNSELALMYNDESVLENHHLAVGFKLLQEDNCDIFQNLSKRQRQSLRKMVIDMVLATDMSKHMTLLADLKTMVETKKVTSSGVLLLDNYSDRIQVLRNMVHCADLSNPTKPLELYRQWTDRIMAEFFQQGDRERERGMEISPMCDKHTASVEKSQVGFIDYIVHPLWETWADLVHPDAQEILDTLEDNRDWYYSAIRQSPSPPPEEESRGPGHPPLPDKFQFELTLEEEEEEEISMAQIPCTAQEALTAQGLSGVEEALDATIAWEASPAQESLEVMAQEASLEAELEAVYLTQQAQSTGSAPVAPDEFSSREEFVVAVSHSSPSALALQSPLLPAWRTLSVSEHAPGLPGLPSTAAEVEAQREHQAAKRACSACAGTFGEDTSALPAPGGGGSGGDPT
Chain of cGMP-inhibited 3',5'-cyclic phosphodiesterase 3A (Q14432 whole entry): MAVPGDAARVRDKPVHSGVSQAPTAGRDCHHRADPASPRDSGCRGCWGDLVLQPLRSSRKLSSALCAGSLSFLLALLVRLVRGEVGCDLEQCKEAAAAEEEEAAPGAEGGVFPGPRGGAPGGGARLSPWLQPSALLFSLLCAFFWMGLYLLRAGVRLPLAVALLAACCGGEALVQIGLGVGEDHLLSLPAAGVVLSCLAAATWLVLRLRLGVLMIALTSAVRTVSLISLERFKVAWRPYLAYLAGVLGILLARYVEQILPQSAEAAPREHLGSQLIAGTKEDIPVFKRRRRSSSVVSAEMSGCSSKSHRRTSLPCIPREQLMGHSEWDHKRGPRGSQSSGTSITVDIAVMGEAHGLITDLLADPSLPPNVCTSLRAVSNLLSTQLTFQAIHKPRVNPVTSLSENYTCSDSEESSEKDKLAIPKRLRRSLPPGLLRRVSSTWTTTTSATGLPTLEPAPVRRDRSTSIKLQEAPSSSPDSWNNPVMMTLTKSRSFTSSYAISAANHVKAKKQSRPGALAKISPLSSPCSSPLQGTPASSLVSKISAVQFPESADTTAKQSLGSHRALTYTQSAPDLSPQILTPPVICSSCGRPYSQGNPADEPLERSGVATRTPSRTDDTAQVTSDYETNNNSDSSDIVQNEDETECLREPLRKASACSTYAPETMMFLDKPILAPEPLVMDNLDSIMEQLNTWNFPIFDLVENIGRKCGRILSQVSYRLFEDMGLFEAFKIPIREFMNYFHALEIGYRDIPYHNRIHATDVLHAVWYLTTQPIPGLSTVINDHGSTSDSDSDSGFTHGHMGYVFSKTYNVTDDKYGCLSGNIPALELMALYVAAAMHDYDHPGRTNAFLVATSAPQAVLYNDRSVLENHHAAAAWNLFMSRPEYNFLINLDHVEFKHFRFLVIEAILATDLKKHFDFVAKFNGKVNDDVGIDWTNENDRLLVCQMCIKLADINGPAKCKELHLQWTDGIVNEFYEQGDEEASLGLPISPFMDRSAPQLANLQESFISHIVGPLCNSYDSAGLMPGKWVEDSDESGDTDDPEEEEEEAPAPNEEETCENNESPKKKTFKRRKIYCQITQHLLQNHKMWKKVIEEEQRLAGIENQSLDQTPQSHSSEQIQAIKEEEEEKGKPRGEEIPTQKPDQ
Chain of Histamine H3 receptor (Q9Y5N1 whole entry): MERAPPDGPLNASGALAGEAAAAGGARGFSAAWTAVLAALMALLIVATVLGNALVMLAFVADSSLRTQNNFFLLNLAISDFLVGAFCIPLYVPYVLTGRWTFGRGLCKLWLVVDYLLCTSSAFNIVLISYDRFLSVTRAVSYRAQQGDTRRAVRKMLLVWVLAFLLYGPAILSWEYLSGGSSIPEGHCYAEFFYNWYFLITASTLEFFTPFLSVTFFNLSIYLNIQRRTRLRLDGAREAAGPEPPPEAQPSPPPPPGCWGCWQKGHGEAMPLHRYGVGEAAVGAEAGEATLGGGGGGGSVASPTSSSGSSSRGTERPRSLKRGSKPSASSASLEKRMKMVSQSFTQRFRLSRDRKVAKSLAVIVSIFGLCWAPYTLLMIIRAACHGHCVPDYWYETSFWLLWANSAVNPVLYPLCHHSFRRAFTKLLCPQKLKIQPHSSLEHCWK
Chain of Prostaglandin G/H synthase 1 (P23219 whole entry): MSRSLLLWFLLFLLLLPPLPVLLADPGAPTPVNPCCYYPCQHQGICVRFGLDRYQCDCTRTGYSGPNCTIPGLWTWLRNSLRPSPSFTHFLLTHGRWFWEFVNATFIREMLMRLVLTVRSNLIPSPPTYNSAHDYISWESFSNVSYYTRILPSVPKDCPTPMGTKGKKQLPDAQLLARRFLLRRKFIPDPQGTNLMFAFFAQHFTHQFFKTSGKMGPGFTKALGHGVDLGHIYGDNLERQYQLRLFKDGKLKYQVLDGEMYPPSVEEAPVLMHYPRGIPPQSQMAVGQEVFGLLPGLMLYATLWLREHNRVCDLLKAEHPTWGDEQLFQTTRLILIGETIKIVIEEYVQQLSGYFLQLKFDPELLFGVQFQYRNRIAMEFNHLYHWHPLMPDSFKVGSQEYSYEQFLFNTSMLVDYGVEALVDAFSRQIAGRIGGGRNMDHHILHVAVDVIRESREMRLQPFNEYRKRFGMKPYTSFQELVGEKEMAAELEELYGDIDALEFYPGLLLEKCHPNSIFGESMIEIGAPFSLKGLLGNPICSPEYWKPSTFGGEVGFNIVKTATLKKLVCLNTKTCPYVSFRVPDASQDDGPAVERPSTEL
Chain of 5-hydroxytryptamine receptor 2B (P41595 whole entry): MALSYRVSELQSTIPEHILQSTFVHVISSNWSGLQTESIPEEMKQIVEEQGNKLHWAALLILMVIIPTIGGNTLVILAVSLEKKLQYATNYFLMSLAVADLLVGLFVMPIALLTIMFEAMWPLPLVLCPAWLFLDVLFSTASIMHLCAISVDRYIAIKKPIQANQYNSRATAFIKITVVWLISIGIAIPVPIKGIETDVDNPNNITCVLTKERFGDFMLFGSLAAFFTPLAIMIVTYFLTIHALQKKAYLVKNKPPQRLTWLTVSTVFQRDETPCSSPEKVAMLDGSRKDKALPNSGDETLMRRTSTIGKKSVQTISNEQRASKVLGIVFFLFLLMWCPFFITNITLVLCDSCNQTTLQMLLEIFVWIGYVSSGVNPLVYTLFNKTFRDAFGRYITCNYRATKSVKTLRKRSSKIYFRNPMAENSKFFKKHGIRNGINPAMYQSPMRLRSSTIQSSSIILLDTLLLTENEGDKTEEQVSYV

Compound	AC50 [1]	AC50 (Adenosine receptor A3)	AC50 [2]	AC50 [3]	AC50 [4]	AC50 [5]	AC50 [6]	AC50 (Histamine H3 receptor)	AC50 (Prothrombin)	AC50 (Progesterone receptor)	AC50 [7]
CC/C=C\C/C=C\C/C=C\C/C=C\C/C=C\CCCC(=O)O [ICOSAPENT]	> 30 µM	25.3 µM	> 30 µM	> 30 µM	> 30 µM	> 30 µM	9.84 µM	> 30 µM	> 30 µM	> 30 µM	> 30 µM
CO[C@@]12[C@H](COC(N)=O)C3=C(C(=O)C(C)=C(N)C3=O)N1C[C@@H]1N[C@@H]12 [MITOMYCIN]	> 30 µM	> 30 µM	> 30 µM	> 30 µM	> 30 µM	> 30 µM	> 30 µM	> 30 µM	> 30 µM	> 30 µM	> 30 µM
CCC1C(C)=NN=C(c2ccc(OC)c(OC)c2)c2cc(OC)c(OC)cc21 (centres undefined) [TOFISOPAM]	> 30 µM	> 30 µM	> 30 µM	> 30 µM	0.319 µM	> 30 µM	> 30 µM	> 30 µM	> 30 µM	> 30 µM	6.62 µM
CCO[C@@H](Cc1ccc(OCCn2c(C)ccc2-c2ccc(SC)cc2)cc1)C(=O)O [SAROGLITAZAR]	> 30 µM	14.9 µM	> 30 µM	> 30 µM	11.1 µM	> 30 µM	> 30 µM	> 30 µM	> 30 µM	8.57 µM	> 30 µM
Oc1c(I)cc(I)c2cccnc12 [IODOQUINOL]	> 10 µM	> 3 µM	> 30 µM	> 10 µM	> 30 µM	> 30 µM	> 30 µM	> 30 µM	> 30 µM	> 30 µM	3.36 µM
CN(Cc1cc(Br)cc(Br)c1N)C1CCCCC1 [BROMHEXINE]	> 30 µM	27.9 µM	> 30 µM	> 30 µM	26.3 µM	> 30 µM	> 30 µM	> 30 µM	> 30 µM	> 30 µM	> 30 µM
CCN(CC)CCNc1ccc(C)c2sc3ccccc3c(=O)c12 [LUCANTHONE]	0.523 µM	12.4 µM	5.65 µM	2.36 µM	> 30 µM	> 30 µM	> 30 µM	10.5 µM	> 30 µM	> 30 µM	> 30 µM
COc1ccc(-c2cc(=O)c3c(O)cc(O[C@@H]4O[C@H](CO[C@@H]5O[C@@H](C)[C@H](O)[C@@H](O)[C@H]5O)[C@@H](O)[C@H](O)[C@H]4O)cc3o2)cc1O [DIOSMIN]	> 30 µM	> 30 µM	> 30 µM	> 30 µM	> 30 µM	> 30 µM	> 30 µM	> 30 µM	> 30 µM	> 30 µM	> 30 µM
CCOC(=O)C(c1c(O)c2ccccc2oc1=O)c1c(O)c2ccccc2oc1=O [ETHYL BISCOUMACETATE]	> 30 µM	17.3 µM	> 30 µM	> 30 µM	> 30 µM	> 30 µM	> 30 µM	> 30 µM	> 30 µM	> 30 µM	> 30 µM
Cc1c(O)cccc1C(=O)N[C@@H](CSc1ccccc1)[C@H](O)CN1C[C@H]2CCCC[C@H]2C[C@H]1C(=O)NC(C)(C)C	> 30 µM	2.84 µM	> 30 µM	> 30 µM	> 30 µM	> 30 µM	> 30 µM	> 30 µM	> 30 µM	> 30 µM	> 30 µM
O=C1CCC(N2C(=O)c3ccccc3C2=O)C(=O)N1 (centres undefined) [THALIDOMIDE]	> 30 µM	> 30 µM	> 30 µM	14.8 µM	> 30 µM	> 30 µM	> 30 µM	> 30 µM	> 30 µM	> 30 µM	> 30 µM
C[C@@H]1O[C@@H](OC[C@H]2O[C@@H](Oc3c(-c4ccc(OCCO)c(OCCO)c4)oc4cc(OCCO)cc(O)c4c3=O)[C@H](O)[C@@H](O)[C@@H]2O)[C@H](O)[C@H](O)[C@H]1O [TROXERUTIN]	> 30 µM	7.52 µM	> 30 µM	> 30 µM	> 30 µM	> 30 µM	22.4 µM	> 30 µM	> 30 µM	> 30 µM	> 30 µM
CC[C@@H]1/C=C(\C)C[C@H](C)C[C@H](OC)[C@H]2O[C@@](O)(C(=O)C(=O)N3CCCC[C@H]3C(=O)O[C@H](/C(C)=C/[C@@H]3CC[C@H](Cl)[C@H](OC)C3)[C@H](C)[C@@H](O)CC1=O)[C@H](C)C[C@@H]2OC [PIMECROLIMUS]	> 30 µM	5.19 µM	> 30 µM	> 30 µM	> 30 µM	> 30 µM	> 30 µM	> 30 µM	> 30 µM	> 30 µM	> 3 µM
CS(=O)(=O)Nc1cc2occ(NC=O)c(=O)c2cc1Oc1ccccc1 [IGURATIMOD]	> 30 µM	1.44 µM	> 30 µM	> 30 µM	1.75 µM	> 30 µM	4.33 µM	> 30 µM	> 30 µM	> 30 µM	> 30 µM

Reference: ChEMBL document CHEMBL5291721, “A preclinical secondary pharmacology resource illuminates target-adverse drug reaction associations of marketed drugs” (Nat Commun, 2023)
